# Patent publication US10577378B2, “EIF4A-inhibiting compounds and methods related thereto” (eFFECTOR Therapeutics, Inc., priority 2015, dated 2020)
# pIC50: −log10 of the molar value.
# Tested on: MDA-MB-231 human breast cancer cells
# Assay: Cell proliferation assay (CellTiter-Glo, 72 hours treatment)
# Assay type: cell-based
# Details: Homo sapiens; MDA-MB-231 cells, 72 hours at 37° C., CellTiter-Glo; read-out: MDA-MB-231 cell proliferation assay (IC50)
# How it was run: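 MDA-MB-231 cells seeded at 2,500 cells/well, treated next day with compound or DMSO vehicle for 72 h at 37 °C. Proliferation read by CellTiter-Glo; IC50 from sigmoidal non-linear regression, binned as +++ (<100 nM), ++ (100–1000 nM), + (>1000 nM).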
row,SMILES,pIC50
1,"COc1nc(Cl)cc2c1[C@]1(O)[C@H](O)[C@H](CN(C)C)[C@@H](c3ccccc3)[C@]1(c1ccc(Cl)cc1)O2 (racemic) [142F, Rac-(5aR,6S,7S,8R,8aS)-3-chloro-5a-(4-chlorophenyl)-7-((dimethylamino)methyl)-1-methoxy-6-phenyl-5a,6,7,8-tetrahydro-8aH-cyclopenta[4,5]furo[3,2-c]pyridine-8,8a-diol]",> 7.00
2,"COc1cncc2c1[C@]1(O)[C@H](O)[C@H](S(C)(=O)=O)[C@@H](c3ccccc3)[C@]1(c1ccc(C#N)cc1)O2 (single isomer, unassigned) [102F]",6.00 to 7.00
3,"COCCNC(=O)[C@H]1[C@@H](O)[C@@]2(O)c3c(OC)cncc3O[C@@]2(c2ccc(Br)cc2)[C@@H]1c1ccccc1 (racemic) [262F, Rac-(4bS,5R,6R,7S,7aR)-7a-(4-bromophenyl)-4b,5-dihydroxy-4-methoxy-N-(2-methoxyethyl)-7-phenyl-4b,6,7,7a-tetrahydro-5H-cyclopenta[4,5]furo[2,3-c]pyridine-6-carboxamide]",> 7.00
4,"CN(C)C(=O)[C@@H]1[C@@H](c2ccccc2)[C@]2(c3ccc(C#N)cc3)Oc3cc(Cl)cnc3[C@]2(O)[C@H]1C#N (racemic) [51F, Rac-(5aR,6S,7R,8R,8aR)-3-chloro-8-cyano-5a-(4-cyanophenyl)-8a-hydroxy-N,N-dimethyl-6-phenyl-5a,7,8,8a-tetrahydro-6H-cyclopenta[4,5]furo[3,2-b]pyridine-7-carboxamide]",6.00 to 7.00
5,"N#Cc1ccc([C@@]23Oc4cc(Cl)cnc4[C@]2(O)[C@H](O)[C@H](CN)[C@H]3c2ccccc2)cc1 (racemic) [30F, rac-4-((5aR,6S,7S,8R,8aS)-7-(aminomethyl)-3-chloro-8,8a-dihydroxy-6-phenyl-6,7,8,8a-tetrahydro-5aH-cyclopenta[4,5]furo[3,2-b]pyridin-5a-yl)benzonitrile]",6.00 to 7.00
6,"COc1nc(Cl)cc2c1[C@]1(O)[C@H](O)[C@H](C(=O)O)[C@@H](c3ccccc3)[C@]1(c1ccc(Br)cc1)O2 (racemic) [295F, rac-(5aR,6S,7R,8R,8aS)-5a-(4-bromophenyl)-3-chloro-8,8a-dihydroxy-1-methoxy-6-phenyl-5a,7,8,8a-tetrahydro-6H-cyclopenta[4,5]furo[3,2-c]pyridine-7-carboxylic acid]",> 7.00
7,"COc1nc(Cl)cc2c1[C@]1(O)[C@H](O)[C@H](CN3CCC(F)CC3)[C@@H](c3ccccc3)[C@]1(c1ccc(C#N)cc1)O2 (racemic) [156Fb, Rac-4-((5aR,6S,7S,8R,8aS)-3-chloro-7-((4-fluoropiperidin-1-yl)methyl)-8,8a-dihydroxy-1-methoxy-6-phenyl-6,7,8,8a-tetrahydro-5aH-cyclopenta[4,5]furo[3,2-c]pyridin-5a-yl)benzonitrile]",> 7.00
8,"CN(C)C(=O)[C@H]1[C@@H](O)[C@@]2(O)c3ccncc3O[C@@]2(c2ccc(C#N)cc2)[C@@H]1c1ccccc1 (single isomer, unassigned) [95F]",6.00 to 7.00
9,"N#Cc1ccc([C@@]23Oc4cc(Cl)cnc4[C@]2(O)[C@H](O)[C@H](C(N)=O)[C@H]3c2ccccc2)cc1 (single isomer, unassigned) [18F]",> 7.00
10,"C=C1C[C@@H](c2ccccc2)[C@]2(c3ccc(Br)cc3)Oc3cc(Cl)cnc3[C@]12O (racemic) [34F, Rac-(5aR,6S,8aR)-5a-(4-bromophenyl)-3-chloro-8-methylene-6-phenyl-5a,6,7,8-tetrahydro-8aH-cyclopenta[4,5]furo[3,2-b]pyridin-8a-ol]",< 6.00
11,"COc1cncc2c1[C@]1(O)[C@H](O)[C@H](C(=O)N3CCC(F)(F)C3)[C@@H](c3ccccc3)[C@]1(c1ccc(Br)cc1)O2 (racemic) [279F, Rac-((4bS,5R,6R,7S,7aR)-7a-(4-bromophenyl)-4b,5-dihydroxy-4-methoxy-7-phenyl-4b,6,7,7a-tetrahydro-5H-cyclopenta[4,5]furo[2,3-c]pyridin-6-yl)(3,3-difluoropyrrolidin-1-yl)methanone]",> 7.00
12,"CNC[C@H]1[C@@H](O)[C@@]2(O)c3c(cc(Cl)nc3OC)O[C@@]2(c2ccc(C#N)cc2)[C@@H]1c1ccccc1 (racemic) [224F, Rac-4-((5aR,6S,7S,8R,8aS)-3-chloro-8,8a-dihydroxy-1-methoxy-7-((methylamino)methyl)-6-phenyl-6,7,8,8a-tetrahydro-5aH-cyclopenta[4,5]furo[3,2-c]pyridin-5a-yl)benzonitrile]",> 7.00
13,"COc1cncc2c1[C@]1(O)[C@H](O)[C@H](CN(C)C(C)(C)C)[C@@H](c3ccccc3)[C@]1(c1ccc(C#N)cc1)O2 (single isomer, unassigned) [243F]",6.00 to 7.00
14,"CC(C)n1cc2c(n1)[C@]1(O)[C@H](O)[C@H](C(=O)N(C)C)[C@@H](c3ccccc3)[C@]1(c1ccc(C#N)cc1)O2 (racemic) [80F, rac-(4aR,5S,6R,7R,7aS)-4a-(4-cyanophenyl)-7,7a-dihydroxy-2-isopropyl-N,N-dimethyl-5-phenyl-2,4a,5,6,7,7a-hexahydrocyclopenta[4,5]furo[3,2-c]pyrazole-6-carboxamide]",< 6.00
15,"N#Cc1ccc([C@@]23Oc4cc(Cl)cnc4[C@]2(O)[C@@H](O)C[C@H]3c2ccccc2)cc1 (racemic) [131F, Rac-4-((5aR,6S,8S,8aS)-3-chloro-8,8a-dihydroxy-6-phenyl-6,7,8,8a-tetrahydro-5aH-cyclopenta[4,5]furo[3,2-b]pyridin-5a-yl)benzonitrile]",< 6.00
16,"COc1nc(C#N)cc2c1[C@]1(O)[C@H](O)[C@H](CN3CCOCC3)[C@@H](c3ccccc3)[C@]1(c1ccc(C#N)cc1)O2 (single isomer, unassigned) [151F]",> 7.00
17,"COc1nc(C#N)cc2c1[C@]1(O)[C@H](O)[C@H](CN3CCC(F)(F)CC3)[C@@H](c3ccccc3)[C@]1(c1ccc(Br)cc1)O2 (racemic) [157Fa, Rac-(5aR,6S,7S,8R,8aS)-5a-(4-bromophenyl)-7-((4,4-difluoropiperidin-1-yl)methyl)-8,8a-dihydroxy-1-methoxy-6-phenyl-5a,7,8,8a-tetrahydro-6H-cyclopenta[4,5]furo[3,2-c]pyridine-3-carbonitrile]",6.00 to 7.00
18,"COc1nc(C#N)cc2c1[C@]1(O)[C@H](O)[C@H](CN)[C@@H](c3ccccc3)[C@]1(c1ccc(C#N)cc1)O2 (racemic) [293F, Rac-(5aR,6S,7S,8R,8aS)-7-(aminomethyl)-5a-(4-cyanophenyl)-8,8a-dihydroxy-1-methoxy-6-phenyl-5a,7,8,8a-tetrahydro-6H-cyclopenta[4,5]furo[3,2-c]pyridine-3-carbonitrile]",> 7.00
19,"N#Cc1ccc([C@@]23Oc4cc(C#N)cnc4[C@]2(O)[C@@H](CN)C[C@H]3c2ccccc2)cc1 (racemic) [176F, rac-(5aR,6S,8R,8aR)-8-(aminomethyl)-5a-(4-cyanophenyl)-8a-hydroxy-6-phenyl-5a,7,8,8a-tetrahydro-6H-cyclopenta[4,5]furo[3,2-b]pyridine-3-carbonitrile]",6.00 to 7.00
20,"COc1cncc2c1[C@]1(O)[C@H](O)[C@H](CN)[C@@H](c3ccccc3)[C@]1(c1ccc(C#N)cc1)O2 (racemic) [65F, Rac-4-((4bS,5R,6S,7S,7aR)-6-(aminomethyl)-4b,5-dihydroxy-4-methoxy-7-phenyl-5,6,7,7a-tetrahydro-4bH-cyclopenta[4,5]furo[2,3-c]pyridin-7a-yl)benzonitrile]",6.00 to 7.00
